Here are results for 20 molecules from patent US20170280720A1, “ARGININE […] INHIBITORS AND USES THEREOF” (EPIZYME, INC., priority 2014, published 2017).

The structures appear in SMILES notation.

Broadly, the IC50 is the point on the concentration scale where inhibition reaches its midpoint.

In one test the target is T1, Human CARM1 (PRMT4) (Homo sapiens, UniProt Q86X55).
T1 construct: Flag-CARM1-His; made in house; host or cells: HEK 293F cells (BacMam baculovirus, pFastBacMam)
T1 sequence (Q86X55 2-585 isoform Q86X55-1): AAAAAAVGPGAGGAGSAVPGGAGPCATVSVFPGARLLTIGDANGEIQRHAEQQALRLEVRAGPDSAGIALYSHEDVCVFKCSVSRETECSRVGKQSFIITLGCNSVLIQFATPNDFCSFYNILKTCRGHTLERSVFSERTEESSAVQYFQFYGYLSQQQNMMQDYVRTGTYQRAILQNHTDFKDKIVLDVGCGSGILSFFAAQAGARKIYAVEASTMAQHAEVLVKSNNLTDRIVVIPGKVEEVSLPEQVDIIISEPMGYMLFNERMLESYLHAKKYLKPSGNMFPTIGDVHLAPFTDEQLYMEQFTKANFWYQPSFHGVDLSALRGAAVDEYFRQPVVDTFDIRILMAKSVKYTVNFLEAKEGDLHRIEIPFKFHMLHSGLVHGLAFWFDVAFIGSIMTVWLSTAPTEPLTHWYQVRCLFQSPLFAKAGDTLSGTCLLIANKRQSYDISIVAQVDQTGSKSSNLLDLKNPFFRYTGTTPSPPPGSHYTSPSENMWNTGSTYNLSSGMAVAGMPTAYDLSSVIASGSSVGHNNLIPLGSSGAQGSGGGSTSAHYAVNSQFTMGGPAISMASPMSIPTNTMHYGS
The experiment in a line: CARM1 biochemical assay (3H-SAM Flashplate, peptide substrate). The conditions noted are these: read-out: CARM1_ IC50. An outline of the steps: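 FLAG/His-tagged human CARM1 (isoform 1, Δ539-561, baculovirus-expressed), 0.25 nM, preincubated 30 min at room temperature with compound (2% DMSO) in 20 mM Bicine pH 7.6, then reacted with 30 nM 3H-SAM and 250 nM biotinylated H3 16-30 peptide (R26 monomethyl). Stopped with 300 uM cold SAM; labelled peptide captured on streptavidin Flashplate; % inhibition versus DMSO and 1 mM SAH controls fitted to a 4- or 3-parameter curve.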

The next test has as its target PRMT5 (Homo sapiens, UniProt O14744). The experiment in a line: PRMT5 IC50 (Table 2; no method described). Particulars: read-out: PRMT5_ IC50. Type of test: biochemical.

Chain of PRMT5 (O14744 whole entry, species assumed): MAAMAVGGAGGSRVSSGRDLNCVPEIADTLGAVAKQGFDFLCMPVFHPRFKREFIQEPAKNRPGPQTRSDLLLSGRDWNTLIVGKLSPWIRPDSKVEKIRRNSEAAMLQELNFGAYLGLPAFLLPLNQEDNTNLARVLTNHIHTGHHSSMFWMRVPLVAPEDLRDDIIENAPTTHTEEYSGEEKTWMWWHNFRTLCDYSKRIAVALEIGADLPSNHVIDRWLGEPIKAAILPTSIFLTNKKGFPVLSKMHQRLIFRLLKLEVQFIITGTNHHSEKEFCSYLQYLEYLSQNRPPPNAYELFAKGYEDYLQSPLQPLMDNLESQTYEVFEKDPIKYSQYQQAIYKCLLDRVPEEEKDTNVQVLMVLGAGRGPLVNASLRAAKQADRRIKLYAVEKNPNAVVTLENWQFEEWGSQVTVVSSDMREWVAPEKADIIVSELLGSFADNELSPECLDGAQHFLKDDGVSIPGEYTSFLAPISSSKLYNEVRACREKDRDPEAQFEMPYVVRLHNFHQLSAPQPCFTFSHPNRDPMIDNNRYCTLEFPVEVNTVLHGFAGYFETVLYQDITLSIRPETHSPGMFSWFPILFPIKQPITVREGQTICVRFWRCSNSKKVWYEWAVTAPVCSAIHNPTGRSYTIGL
Chain of PRMT5 (Q9BQA1 whole entry partner, species assumed): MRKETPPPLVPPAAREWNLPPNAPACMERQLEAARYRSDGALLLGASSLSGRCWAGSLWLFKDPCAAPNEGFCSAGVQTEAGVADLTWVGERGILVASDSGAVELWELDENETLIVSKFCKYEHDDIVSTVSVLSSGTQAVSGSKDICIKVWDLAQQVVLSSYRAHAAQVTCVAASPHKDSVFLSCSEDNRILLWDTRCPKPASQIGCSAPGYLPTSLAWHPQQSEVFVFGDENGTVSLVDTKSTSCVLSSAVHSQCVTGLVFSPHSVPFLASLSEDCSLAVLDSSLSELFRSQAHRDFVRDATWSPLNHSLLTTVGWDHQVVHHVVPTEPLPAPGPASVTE

With `CNCCN(C)Cc1cccc(-c2cc(C(=O)N[C@@H](C)c3ccccc3)c3cnn(C(C)C)c3n2)c1` [Compound 44], the values for the half-inhibitory concentration (IC50) at Human CARM1 (PRMT4) and on PRMT5 were 18.6 nM and 50000 nM, respectively.
For `CC(C)n1ncc2c(C(=O)N(C)Cc3ccccc3)cc(-c3cccc(CN(C)CCN)c3)nc21` [Compound 31], the IC50 is 21.7 nM at Human CARM1 (PRMT4) and 858 nM at PRMT5.
In the case of `CC(C)n1cnc2ccc(-c3ccc(CNCCN)cc3)cc21` [Compound 166], the IC50 worked out at 31700 nM at Human CARM1 (PRMT4) and 404 nM on PRMT5.
Consider `CC(C)n1ncc2c(C(=O)NCc3ccncc3)cc(-c3cccc(CNCCN)c3)nc21` [Compound 150], for which the IC50 on Human CARM1 (PRMT4) was determined as 274 nM; on PRMT5, 23900 nM.
In the same order, the values of `CC(C)n1ncc2c(C(=O)N[C@@H](C)c3ccccc3)cc(-c3cccc(CNCCN)c3)nc21` [Compound 160] are 28 nM and 35900 nM.
As to `Cc1cccc(CCn2cnc3ccc(-c4ccc(CNCCN)cc4)cc32)c1` [Compound 143], the figures for the half-inhibitory concentration (IC50) on Human CARM1 (PRMT4) and at PRMT5 were 5620 nM and 281 nM, respectively.
For the molecule `NCCNCc1ccc(-c2cnc3c(c2)CCC(=O)N3)cc1` [Compound 156], the 50% inhibitory concentration (IC50) on Human CARM1 (PRMT4) stood at 2610 nM; at PRMT5 it was 338 nM.
In the same order, the values of `CC(C)n1ncc2c(C(=O)N3CCc4ccccc4C3)cc(-c3cccc(CN(C)CCN)c3)nc21` [Compound 23] are 185 nM and 11600 nM.
On the same counts, the results for `COc1ccc(Cn2cnc3ccc(-c4ccc(CNCCN)cc4)cc32)cc1` [Compound 132] are 7210 nM and 57.2 nM.
On the same counts, the results for `CNCCN(C)Cc1cccc(-c2ccc3c(c2)ncn3C(C)C)c1` [Compound 36] are 15800 nM and 50000 nM.
`COc1cccc(CNC(=O)c2cncc(-c3ccc(CNCCN)cc3)c2)c1` [Compound 356]: the IC50 on Human CARM1 (PRMT4) is 24300 nM; at PRMT5, 377 nM.
Turning to `CC(C)n1ncc2c(C(=O)N[C@@H](C)c3ccccc3)cc(-c3cccc(CN(C)CCN)c3)nc21` [Compound 136], the IC50 worked out at 45.5 nM on Human CARM1 (PRMT4) and 50000 nM on PRMT5.
For the molecule `Cc1c(C(=O)NCc2ccccc2)cc(-c2cccc(CN(C)CCN)c2)c2cn[nH]c12` [Compound 15], the IC50 at Human CARM1 (PRMT4) was 973 nM; at PRMT5 it was 10800 nM.
In the same order, the values of `COc1cccc(Cc2nc3ccc(-c4ccc(CNCCN)cc4)cc3n2C(C)C)c1` [Compound 135] are 4920 nM and 169 nM.
Turning to `Cc1ccc(-n2cnc3cc(-c4ccc(CNCCN)cc4)ccc32)cc1` [Compound 131], the IC50 on Human CARM1 (PRMT4) was determined as 2840 nM; on PRMT5 it was 371 nM.
As for `Cc1cc2cc(-c3ccc(CNCCN)cc3)ccc2[nH]1` [Compound 141], the 50% inhibitory concentration (IC50) on Human CARM1 (PRMT4) was 5810 nM; at PRMT5 it was 327 nM.
`COc1ccc(Cn2cnc3ccc(-c4ccc(CN(C)CCN)cc4)cc32)cc1` [Compound 16]: the 50% inhibitory concentration (IC50) amounted to 4080 nM on Human CARM1 (PRMT4) and 5690 nM on PRMT5.
On the same counts, the results for `NCCNCc1ccc(-c2ccc3ncn(C4CCNCC4)c3c2)cc1` [Compound 157] are 4600 nM and 418 nM.
As to `CS(=O)(=O)N1CCC(Cn2cnc3ccc(-c4ccc(CNCCN)cc4)cc32)CC1` [Compound 129], the IC50 at Human CARM1 (PRMT4) was found to be 12900 nM; on PRMT5, 122 nM.
On the same counts, the results for `CNCCN(C)Cc1cccc(-c2cc(C(=O)N(C)Cc3ccccc3)c3cnn(C(C)C)c3n2)c1` [Compound 24] are 71.3 nM and 849 nM.
